Assay results reported in patent US11834458B2, “Anti-cancer nuclear hormone receptor-targeting compounds” (Nuvation Bio Inc., priority 2021, dated 2023).
Like-named read-outs stand apart in the source and are kept apart here.

What was measured:
[1] = molecular target: full-length androgen receptor (Homo sapiens (Human), UniProt P10275); test: AR antagonism assay; format: cell-based
Description: AR antagonism assay: To evaluate AR antagonist activity, test compound was added to the assay plate (top dose 10 μM, 3 fold serial dilution, 10 point dose response). HEK293 cells stably expressing the full-length androgen receptor were seeded at a density of 20,000 cells/well in the assay plate. The assay plate was then incubated at room temperature for 10 minutes and at 37° C., 5% CO2 for 20 minutes. Testosterone was added to the assay plate at 1 nM final concentration and the assay plate incubated at 37° C., 5% CO2 for 20 h. After the incubation period, Steady-glo was added to the assay plate and mixed at room temperature for 20 minutes on an orbital shaker, before reading out on the EnVision plate reader.

LNCap cells = test: Cell viability assay, LNCap; format: cell-based; conditions: Homo sapiens, 144 h
Description: (§1) Cell viability assay: LNCap, 22Rv1, MCF7, MDAMB361, T47D, and IEC6 cells are seeded at a density of 500-2000 cells/well in 96 well plates, and a ‘T0’ (timepoint 0) was included along with the assay plate. The plates are then incubated at 37° C., 5% CO2 in a cell culture incubator overnight. On the next day, the ‘T0’ plate was assayed using CellTiterGlo (Promega, Inc) according to the manufacturer's instructions. The appropriate compounds are diluted in DMSO and added to the assay plate (final DMSO concentration of 0.1-0.2%) on the next day. The assay plates are incubated for 6 days at 37° C., 5% CO2. After the incubation period, the plates are assayed using CellTiterGlo (Promega, Inc) according to the manufacturer's instructions and luminescence was read on the EnVision plate reader. Inhibition of the tested compounds was determined by the following formula: Inhibition rate (%)=(1−(RLU compound−RLU day0)/(RLU control−RLU day0))*100%. GraphPadPrism was used to analyze the data and determine GI50/IC50 values.

22Rv1 cells = test: Cell viability assay, 22Rv1; format: cell-based; conditions: Homo sapiens
Description: as §1

AR = AR (Homo sapiens (Human), UniProt P10275, T878A); test: AR binding assay
Description: AR binding assay: To assess AR binding, test compound (top dose 10 μM, 4 fold serial dilution, 8 point dose response) and control (progesterone) were transferred to the assay plate. Cytosol from LnCaP cells was added to the plate, followed by addition of radiolabeled ^3H-R1881 at a final concentration of 1 nM. The plate was sealed, and the reaction was incubated at 300 rpm at 4° C. for 24 hrs. Radioligand absorption buffer (10 mM Tris-HCl, pH 7.4; 1.5 mM EDTA; 1 mM DTT; 0.25% charcoal; 0.0025% dextran) was then added to the plate, mixed, and incubated at 4° C. for 15 minutes. The plate was then centrifuged at 3000 rpm for 30 minutes at 4° C. The supernatant was transferred to the scint-tube and Tri-carb was used for scintillation counting. The data was analyzed using GraphPadPrism v5.0 and binding IC50 was determined as the concentration where 50% inhibition of radioligand binding was observed.

IEC6 cells = test: Cell viability assay, IEC6; format: cell-based; conditions: Rattus norvegicus
Description: as §1

MCF7 cells = test: Cell viability assay, MCF7; format: cell-based; conditions: Homo sapiens, MCF7, 144 h, read-out: MCF7 (GI50, nM)
Description: as §1

T47D cells = test: Cell viability assay, T47D; format: cell-based; conditions: Homo sapiens, T47D, 144 h, read-out: T47D (GI50, nM)
Description: as §1

MDAMB361 cells = test: Cell viability assay, MDAMB361; format: cell-based; conditions: Homo sapiens, MDA-MB-361, 144 h, read-out: MDA-MB-361 (GI50, nM)
Description: as §1

[2] = LNCap cells, 6 days, CellTiterGlo, read-out: LNCap (GI50)
[3] = 144 h, 22RV1 cells, 6 days, CellTiterGlo, read-out: 22RV1 (GI50)
[4] = cytosol from LnCaP cells, 3H-R1881 1 nM, 4° C. 24 hrs, read-out: AR binding
[5] = 144 h, IEC-6 cells, 6 days, CellTiterGlo, read-out: IEC-6 (IC50)
[6] = HEK293 cells stably expressing full-length androgen receptor, testosterone 1 nM, 20 h, read-out: AR antagonism
[7] = LNCaP, read-out: LNCap (GI50, nM)
[8] = 22Rv1, 144 h, read-out: 22RV1 (GI50, nM)
[9] = IEC-6, 144 h, read-out: IEC-6 (IC50, nM)

Chain of full-length androgen receptor (P10275 whole entry): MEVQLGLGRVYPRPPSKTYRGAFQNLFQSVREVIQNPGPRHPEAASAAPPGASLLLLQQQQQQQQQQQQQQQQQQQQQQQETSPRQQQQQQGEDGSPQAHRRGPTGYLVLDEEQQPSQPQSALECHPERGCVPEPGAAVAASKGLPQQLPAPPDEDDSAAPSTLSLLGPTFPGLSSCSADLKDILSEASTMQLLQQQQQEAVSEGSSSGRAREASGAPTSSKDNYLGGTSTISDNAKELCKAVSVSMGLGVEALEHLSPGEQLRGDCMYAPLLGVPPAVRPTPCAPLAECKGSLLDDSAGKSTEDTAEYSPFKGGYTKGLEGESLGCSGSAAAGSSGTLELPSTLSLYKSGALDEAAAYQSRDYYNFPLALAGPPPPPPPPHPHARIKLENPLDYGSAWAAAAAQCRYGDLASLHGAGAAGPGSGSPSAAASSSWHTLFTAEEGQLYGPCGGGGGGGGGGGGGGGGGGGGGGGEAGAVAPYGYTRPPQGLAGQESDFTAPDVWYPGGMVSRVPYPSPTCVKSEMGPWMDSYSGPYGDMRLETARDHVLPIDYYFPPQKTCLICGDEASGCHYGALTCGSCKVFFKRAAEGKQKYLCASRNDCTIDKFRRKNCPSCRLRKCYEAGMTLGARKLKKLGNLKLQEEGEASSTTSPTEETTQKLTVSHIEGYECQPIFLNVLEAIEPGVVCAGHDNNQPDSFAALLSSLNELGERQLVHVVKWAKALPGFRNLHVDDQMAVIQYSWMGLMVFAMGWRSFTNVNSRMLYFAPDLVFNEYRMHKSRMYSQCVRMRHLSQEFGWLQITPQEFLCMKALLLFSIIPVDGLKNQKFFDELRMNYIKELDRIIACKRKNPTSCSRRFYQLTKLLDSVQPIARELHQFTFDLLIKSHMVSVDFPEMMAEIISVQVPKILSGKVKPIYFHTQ
Chain of AR (P10275 whole entry T878A): as the sequence (P10275 whole entry) above, with T878A counted along it

Structure (SMILES)	IC50 [1]	GI50 (LNCap cells; [2])	GI50 (22Rv1 cells; [3])	IC50 (AR; [4])	IC50 (IEC6 cells; [5])	IC50 [1, 6]	GI50 (LNCap cells; [7])	GI50 (22Rv1 cells; [8])	IC50 (AR)	IC50 (IEC6 cells; [9])	GI50 (MCF7 cells)	GI50 (T47D cells)	GI50 (MDAMB361 cells)
CC[C@@]1(O)C(=O)OCc2c1cc1n(c2=O)Cc2cc3c(CN4CCN(C(=O)CCCCCOc5ccc(C(=O)N[C@H]6CC[C@H](Oc7ccc(C#N)c(Cl)c7)CC6)cc5)CC4)c(O)ccc3nc2-1 [Compound 12, N-((1r,4r)-4-(3-Chloro-4-cyanophenoxy)cyclohexyl)-4-((6-(4-(((S)-4-ethyl-4,9-dihydroxy-3,14-dioxo-3,4,12,14-tetrahydro-1H-pyrano[3′,4′:6,7]indolizino[1,2-b]quinolin-10-yl)methyl)piperazin-1-yl)-6-oxohexyl)oxy)benzamide]	0.01 to 0.5 µM	10 to 500 nM	501 to 1000 nM	> 1 µM	> 1000 nM	–	–	–	–	–	–	–	–
CC[C@@]1(O)C(=O)OCc2c1cc1n(c2=O)Cc2cc3c(CN(C)C)c(OC(=O)N4CCC(N(C)C(=O)CO[C@H]5CC[C@H]6[C@@H]7CC[C@H]8CC(=O)CC[C@]8(C)[C@H]7CC[C@]56C)CC4)ccc3nc2-1 [Compound 20, (S)-10-((Dimethylamino)methyl)-4-ethyl-4-hydroxy-3,14-dioxo-3,4,12,14-tetrahydro-1H-pyrano[3′,4′:6,7]indolizino[1,2-b]quinolin-9-yl 4-(2-(((5S,8R,9S,10S,13S,14S,17S)-10,13-dimethyl-3-oxohexadecahydro-1H-cyclopenta[a]phenanthren-17-yl)oxy)-N-methylacetamido)piperidine-1-carboxylate]	–	–	–	–	–	> 1 µM	10 to 500 nM	10 to 500 nM	0.01 to 0.5 µM	> 1000 nM	–	–	–
CC[C@@]1(O)C(=O)OCc2c1cc1n(c2=O)Cc2cc3c(CN(C)C)c(OCCCCCOc4ccc(C(=O)N[C@H]5CC[C@H](Oc6ccc(C#N)c(Cl)c6)CC5)cc4)ccc3nc2-1 [Compound 7, N-((1r,4r)-4-(3-Chloro-4-cyanophenoxy)cyclohexyl)-4-((5-(((S)-10-((dimethylamino)methyl)-4-ethyl-4-hydroxy-3,14-dioxo-3,4,12,14-tetrahydro-1H-pyrano[3′,4′:6,7]indolizino[1,2-b]quinolin-9-yl)oxy)pentyl)oxy)benzamide]	0.01 to 0.5 µM	10 to 500 nM	10 to 500 nM	> 1 µM	501 to 1000 nM	–	–	–	–	–	–	–	–
CC[C@@]1(O)C(=O)OCc2c1cc1n(c2=O)Cc2cc3c(COC(C)(C)C)c(OC(=O)N4CCN(CCCCCCN(C)c5ccc([C@H]6C[C@@]7(C)[C@@H](CC[C@]7(OC(C)=O)C(C)=O)[C@@H]7CCC8=CC(=O)CCC8=C76)cc5)CC4)ccc3nc2-1 [Compound 17, (S)-10-(tert-Butoxymethyl)-4-ethyl-4-hydroxy-3,14-dioxo-3,4,12,14-tetrahydro-1H-pyrano[3′,4′:6,7]indolizino[1,2-b]quinolin-9-yl 4-(6-((4-((8S,11R,13S,14S,17R)-17-acetoxy-17-acetyl-13-methyl-3-oxo-2,3,6,7,8,11,12,13,14,15,16,17-dodecahydro-1H-cyclopenta[a]phenanthren-11-yl)phenyl)(methyl)amino)hexyl)piperazine-1-carboxylate]	–	–	–	–	–	–	> 1000 nM	–	–	> 1000 nM	> 1000 nM	> 1000 nM	> 1000 nM
CC[C@@]1(O)C(=O)OCc2c1cc1n(c2=O)Cc2cc3c(CN(C)C)c(OC(=O)N4[C@H](C)CN(CCCCCCN(C)c5ccc([C@H]6C[C@@]7(C)[C@@H](CC[C@]7(OC(C)=O)C(C)=O)[C@@H]7CCC8=CC(=O)CCC8=C76)cc5)C[C@H]4C)ccc3nc2-1 [Compound 16, (S)-10-((Dimethylamino)methyl)-4-ethyl-4-hydroxy-3,14-dioxo-3,4,12,14-tetrahydro-1H-pyrano[3′,4′:6,7]indolizino[1,2-b]quinolin-9-yl (2R,6R)-4-(6-((4-((8S,11R,13S,14S,17R)-17-acetoxy-17-acetyl-13-methyl-3-oxo-2,3,6,7,8,11,12,13,14,15,16,17-dodecahydro-1H-cyclopenta[a]phenanthren-11-yl)phenyl)(methyl)amino)hexyl)-2,6-dimethylpiperazine-1-carboxylate]	–	–	–	–	–	–	501 to 1000 nM	–	–	> 1000 nM	10 to 500 nM	10 to 500 nM	> 1000 nM
CC[C@@]1(O)C(=O)OCc2c1cc1n(c2=O)Cc2cc3c(CN4CCN(C(=O)C5CCN(c6ccc(C(=O)N[C@H]7CC[C@H](Oc8ccc(C#N)c(Cl)c8)CC7)nn6)CC5)CC4)c(O)ccc3nc2-1 [Compound 14, N-((1r,4r)-4-(3-Chloro-4-cyanophenoxy)cyclohexyl)-6-(4-(4-(((S)-4-ethyl-4,9-dihydroxy-3,14-dioxo-3,4,12,14-tetrahydro-1H-pyrano[3′,4′:6,7]indolizino[1,2-b]quinolin-10-yl)methyl)piperazine-1-carbonyl)piperidin-1-yl)pyridazine-3-carboxamide]	0.01 to 0.5 µM	10 to 500 nM	10 to 500 nM	0.01 to 0.5 µM	> 1000 nM	–	–	–	–	–	–	–	–
CC[C@@]1(O)C(=O)OCc2c1cc1n(c2=O)Cc2cc3c(CN(C)C)c(OC(=O)N4CCN(CCCCCCO[C@@H]5CC[C@@H]6[C@H]7CC[C@@H]8CC(=O)CC[C@@]8(C)[C@@H]7CC[C@]65C)CC4)ccc3nc2-1 [Compound 8, (S)-10-((Dimethylamino)methyl)-4-ethyl-4-hydroxy-3,14-dioxo-3,4,12,14-tetrahydro-1H-pyrano[3′,4′:6,7]indolizino[1,2-b]quinolin-9-yl 4-(6-(((5R,8S,9R,10R,13R,14R,17R)-10,13-dimethyl-3-oxohexadecahydro-1H-cyclopenta[a]phenanthren-17-yl)oxy)hexyl)piperazine-1-carboxylate]	–	–	–	–	–	> 1 µM	10 to 500 nM	10 to 500 nM	0.01 to 0.5 µM	> 1000 nM	–	–	–
CC[C@@]1(O)C(=O)OCc2c1cc1n(c2=O)Cc2cc3c(CN4CCC(N(C)C(=O)CO[C@H]5CC[C@H]6[C@@H]7CC[C@H]8CC(=O)CC[C@]8(C)[C@H]7CC[C@]56C)CC4)c(O)ccc3nc2-1 [Compound 18, 2-(((5S,8R,9S,10S,13S,14S,17S)-10,13-Dimethyl-3-oxohexadecahydro-1H-cyclopenta[a]phenanthren-17-yl)oxy)-N-(1-(((S)-4-ethyl-4,9-dihydroxy-3,14-dioxo-3,4,12,14-tetrahydro-1H-pyrano[3′,4′:6,7]indolizino[1,2-b]quinolin-10-yl)methyl)piperidin-4-yl)-N-methylacetamide]	> 1 µM	10 to 500 nM	10 to 500 nM	0.01 to 0.5 µM	> 1000 nM	–	–	–	–	–	–	–	–
CC[C@@]1(O)C(=O)OCc2c1cc1n(c2=O)Cc2cc3c(CN(C)C)c(OC(=O)N(C)C4CCN(C(=O)CO[C@H]5CC[C@H]6[C@@H]7CC[C@H]8CC(=O)CC[C@]8(C)[C@H]7CC[C@]56C)CC4)ccc3nc2-1 [Compound 21, (S)-10-((Dimethylamino)methyl)-4-ethyl-4-hydroxy-3,14-dioxo-3,4,12,14-tetrahydro-1H-pyrano[3′,4′:6,7]indolizino[1,2-b]quinolin-9-yl (1-(2-(((5S,8R,9S,10S,13S,14S,17S)-10,13-dimethyl-3-oxohexadecahydro-1H-cyclopenta[a]phenanthren-17-yl)oxy)acetyl)piperidin-4-yl)(methyl)carbamate]	–	–	–	–	–	> 1 µM	10 to 500 nM	10 to 500 nM	0.01 to 0.5 µM	> 1000 nM	–	–	–
